From patent US20210052633A1, “HYALURONIC ACID SYNTHESIS PROMOTER, METHOD FOR PROMOTING HYALURONIC ACID SYNTHESIS, AND CELL EVALUATION METHOD” (SEIKAGAKU CORPORATION, priority 2018, published 2021)

Test system: Human synovial cells derived from a patient with rheumatism (HFLS-RA)
Test: Hyaluronic acid synthesis by synovial cells ([3H] glucosamine incorporation, HPLC fractionation by molecular weight)
Type: cell-based
Conditions: Example 4, HFLS-RA, 48 hours
Protocol: Compound 1 or sodium hyaluronate (HA) (ARTZ Dispo (registered trademark) (manufactured by Seikagaku Corporation)) was mixed in a solution containing a phosphate buffer solution (GIBCO) and an α-MEM (GIBCO) concentrated medium. Further, each reagent was added and mixed in the resulting solution so that the final concentrations were as follows: 10% (v/v) fetal bovine serum (hereinafter FBS (MP Biomedicals)), 10 ng/mL recombinant human IL-1β/IL-1F2 (hereinafter IL-1β (R & D Systems)), 1% (w/v) penicillin/streptomycin (GIBCO), and 370 kBq/mL [^3H] glucosamine (Perkin Elmer). As a result, the following five solutions were obtained as test substances.
Human synovial cells derived from a patient with rheumatism (HFLS-RA, CELL APPLICATIONS, INC.) were subcultured and grown in a 175-cm^2 flask. In the cell culture, Basal medium (containing 10% (v/v) Growth supplement and 1% (w/v) penicillin/streptomycin) (manufactured by Cell Applications, Inc.) was used. Thereafter, the cells were seeded in a 6-well plate at 3.0×10^5 cells/2 mL/well and cultured for about 24 hours until confluence was reached. In the cell culture, α-MEM medium (containing 10% (v/v) FBS and 1% (w/v) penicillin/streptomycin) was used. After removing the culture supernatant, 2 mL of the test substance was added to the cells, and the cells were further cultured for 48 hours. The culture was performed at 37° C. in a CO2 incubator (5% (v/v) CO2). After completion of the culture, the culture supernatant was collected and cryopreserved in an ultra-low temperature freezer until measurement.
Since glucosamine is a constituent monosaccharide of hyaluronic acid, in hyaluronic acid newly synthesized in the cells after addition of the test substance, [^3H] glucosamine is incorporated. Therefore, hyaluronic acid in the collected culture supernatant was separated according to molecular weight using HPLC, and fractions were collected every 0.5 minutes using a fraction collector. To each of the collected fractions, 0.5 mL of a scintillation fluid was added and mixed. Thereafter, the radioactivity (dpm, disintegrations per minute) of each fraction was measured using a scintillation counter, and the radioactivity (the amount of [^3H] glucosamine incorporated into newly produced hyaluronic acid) was evaluated. The HPLC conditions are as follows.
Mobile phase: a solution of 5 mmol/L phosphate buffer solution (pH 6.0) with 0.82% (w/v) NaCl:acetonitrile=2:1 (v:v)
Column: OH pak SB-805 HQ column (Shodex (registered trademark)), column temperature: 35° C.
The hyaluronic acid standard solution was separated by HPLC, and UV absorption at a wavelength of 210 nm was measured. Fraction No. in which the peak top of the hyaluronic acid standard solution of each molecular weight is collected was calculated. As the hyaluronic acid standard solutions, Select-HATM 500 k (average molecular weight: 528,000), Select-HATM 1,000 k (average molecular weight: 1,076,000), and Select-HATM 2,500 k (average molecular weight: 2,420,000) were used.
The same procedure as in Example 1 was performed. Note that the culture supernatant was collected at respective time points (8, 24, 36, 48, and 72 hours) after adding the test substance to the cells.
A control solution, a 0.01% (w/v %) compound 1 solution, and a 0.01% (w/v %) sodium hyaluronate (HA) solution were prepared in the same manner as in Example 1. DF-Na (0.014 μg/mL, 0.14 μg/mL, 1.4 μg/mL, and 14 μg/mL) solutions were prepared by dissolving DF-Na in the control solution. Further, a HA+DF-Na mixed liquid was obtained by dissolving DF-Na (1.4 μg/mL) in the 0.01% (w/v %) sodium hyaluronate (HA) solution.
The same procedure as in Example 1 was performed.
The same procedure as in Example 1 was performed. Note that a column (OH pak SB-807 HQ column (Shodex (registered trademark)) having higher separability on the high molecular weight side than the HPLC column (OH pak SB-805 HQ column (Shodex (registered trademark)) was used.

Q: What does the source list for `O=C(O)Cc1ccccc1Nc1c(Cl)cccc1Cl` [DF-Na, diclofenac sodium, reference compound]?
A: action of producing high molecular weight hyaluronic acid observed in the compound 1 group (0.01% HA, DF-Na 1.4 μg/mL, or both mixed): not observed; molecular weight peak of hyaluronic acid produced (DF-Na 1.4 μg/mL): ~500,000; action of promoting hyaluronic acid synthesis (DF-Na 0.014 to 14 μg/mL): not observed at any concentration
